Source: patent US20120077843A1, “MALIGNANT PRECURSOR CELLS FROM DUCTAL CARCINOMA IN SITU LESIONS” (George Mason Intellectual Properties, Inc., priority 2009, published 2012)
Read-outs that look alike come from different tables or passages of the source.

How the values were obtained:
human DCIS spheroids = conditions: for spheroid and 3-D structure formation (in words): DCIS organoid cultures, untreated up to 113 spheroids per duct organoid
Experimental: Tissue collection. […] Gross tissue pathology at the time of procurement was assessed by a board certified pathologist. Tissue containing DCIS lesions was excised for further macrodissection and rinsed in sterile phosphate buffered saline to remove sentinel lymph node dye. Using sterile technique, ductal tissue was dissected from surrounding breast adipose/fibrous tissue. The ductal tissue was rinsed in serum free DMEM/F 12 medium (Invitrogen, Carlsbad, Calif., USA) supplemented with human recombinant EGF (10 ng/mL; Cell Signaling Technology, Danvers, Mass., USA or Millipore, Billerica, Mass., USA), insulin (10 μg/mL; Roche, Indianapolis, Ind., USA), streptomycin sulfate (100 μg/mL; Sigma, St. Louis, Mo., USA) and gentamicin sulfate (20 μg/mL; Sigma) prior to distribution in culture flasks (MidSci, St. Louis, Mo., USA). Ductal tissue was allowed to attach to the culture surface and observed daily for cellular outgrowths. Non-adherent organoids were removed from the culture flask.
(§1) Organoid ex vivo culture. Dissected breast ductal tissue was grown in 115 cm^2 TPP reclosable flasks (MidSci) or 10 cm^2 culture tubes (MidSci) in serum free DMEM/F12 medium supplemented with human recombinant EGF (10 ng/mL), insulin (10 μg/mL), streptomycin sulfate (100 μg/mL) and gentamicin sulfate (20 μg/mL), with or without 0.36% (v/v) murine Engelbreth-Holm-Swarm (EHS) derived, growth factor reduced, basement membrane extract (Trevigen, Gaithersburg, Md., USA) at 37° C. in a humidified 5.0% CO2 atmosphere. Medium was replaced three times per week. Cultures were maintained continuously for up to one year. Periodically, organoids were removed, under microscopic visualization, for propagation into new culture flasks or phenotypic and molecular analysis.
(§2) Pharmacological inhibition of autophagy. […] CO-containing medium was replaced three times per week for a period of 6 months.
(§3) Statistics. The Student T-test, two tailed with Welch's correction, was used to calculate the p-value, and to determine the statistical difference of epithelial outgrowth area before and after CQ treatment. P values <0.05 were considered significant. Standard deviation (SO) or standard error of the mean (SEM) was calculated for group comparisons. Wilcoxon rank sum was used to determine the differences between CQ treated and untreated groups for the reverse phase protein arrays. A p=0.1 was considered different for small sample sizes.

[1] = tested on: autophagy associated signal pathway proteins in DCIS spheroids; assay: Cell signaling pathway mapping by reverse phase protein microarray (RPMA) of spheroids pre and post chloroquine; assay type: cell-based, human; conditions: for autophagy associated signal pathway proteins (Atg5, AKT, ERK, mTOR, IRS-1, p38 etc.) by RPMA: spheroids pre and post chloroquine phosphate 50 μM for 4 days, n=3
Experimental: as §2, §3

[2] = tested on: DCIS organoid culture spheroids; assay: Autophagosome lysosome imaging with LysoTracker Red; assay type: cell-based, human; conditions: chloroquine phosphate 50 μM for 2 weeks
[3] = tested on: DCIS organoid cell cultures; assay: Histomorphology (H&E of FFPE sections) of chloroquine treated DCIS organoids; assay type: cell-based, human; conditions: for histology of intraductal epithelial cells / remaining adherent cells: chloroquine phosphate 50 μM, FIG. 14D
Experimental: as §2
Immunohistochemistry. Formalin fixed murine tissue or DCIS organoids were processed and paraffin embedded by commercial laboratories (AML Laboratories, Inc, Rosedale, Md. or Bi-Biomics, Nampa, Id.). Formalin fixed paraffin embedded (FFPE) tissue sections (5 μm or 1 μm thickness) mounted on positively charged glass slides were baked at 56° C. for 20 min., deparaffinized in xylene and rehydrated in a series of graded alcohols (100%, 95%, and 70%) with a final rinse in wash buffer (Dako, Carpinteria, Calif., USA). Antigen retrieval, when necessary, was performed with proteinase K or heat induced epitope retrieval. Immunostaining was performed on a Dako Autostainer with an Envision+HRP staining kit (Dako) per manufacturer's instructions. Stained tissue sections were counterstained with Hematoxylin (Dako), rinsed in distilled water and developed in Scott's Tap Water Substitute solution. Cover slips were applied using aqueous mounting medium (Faramount; Dako). Images were captured with an Olympus BX51 microscope using 4×, 10×, 20×, or 100× objectives.

[4] = tested on: DCIS malignant precursor cells; assay: Ex vivo invasion of autologous breast stroma in organoid culture; assay type: cell-based, human; conditions: chloroquine phosphate treated organ culture
Experimental: as §1, §2

[5] = listed as chloroquine phosphate

Q: For `CCN(CC)CCCC(C)Nc1ccnc2cc(Cl)ccc12` (stereo not shown) [chloroquine, N′-(7-chloroquinolin-4-yl)-N,N-diethyl-pentane-1,4-diamine], which “spheroid and 3-D structure formation (in words)” value (human DCIS spheroids) is on record?
A: zero for the majority of explants

Q: What about the “spheroid and 3-D structure formation (in words)” value (human DCIS spheroids; listed as CQ) of the same compound?
A: virtually abolished

Q: What about the “spheroid and 3-D structure formation (in words)” value (human DCIS spheroids; [5]) of the same compound?
A: completely suppressed

Q: And the “explants without any spheroids following chloroquine treatment” value (human DCIS spheroids; case 09-148, 14 explants)?
A: 12 out of 14

Q: What about the “spheroids observed after treatment” value (human DCIS spheroids; case 09-301, n=3, prior to treatment 20.5±7.8) of the same compound?
A: no spheroids observed

Q: And the “inhibition of spheroid outgrowth, CQ in combination with tamoxifen” value (human DCIS spheroids; cultured DCIS cells, combination with anti-estrogen compound (tamoxifen))?
A: pronounced effect

Q: What about the “apoptosis (elevation of cleaved PARP Asp214)” value ([1]; as early as 48 hours post treatment) of the same compound?
A: induced apoptosis

Q: And the “autophagy associated signal pathway proteins (Atg5, AKT, ERK, mTOR, IRS-1, p38 etc.) by RPMA” value ([1]; listed as CQ)?
A: suppressed

Q: What about the “autophagy associated signal pathway proteins (Atg5, AKT, ERK, mTOR, IRS-1, p38 etc.) by RPMA” value ([1]; listed as Chloroquine) of the same compound?
A: markedly inhibited

Q: And the “autophagy associated signal pathway proteins (Atg5, AKT, ERK, mTOR, IRS-1, p38 etc.) by RPMA” value [1, 5]?
A: suppressed autophagy associated proteins

Q: And the “spheroid integrity and LysoTracker Red distribution” value [2]?
A: Dissociation of the spheroid, and diffuse accumulation of LysoTracker Red

Q: And the “histology of invading DCIS cells within the organoid” value ([3]; 2 days post chloroquine treatment, 50 μM)?
A: Degeneration of the invading DCIS cells

Q: And the “histology of intraductal epithelial cells / remaining adherent cells” value [3]?
A: Cellular swelling and apparent apoptotic death

Q: What about the “histology of intraductal epithelial cells / remaining adherent cells” value ([3]; listed as CQ) of the same compound?
A: lysosomal engorgement

Q: What about the “histology of DCIS organoid cultured with chloroquine long term” value ([3]; cultured in the presence of chloroquine for 6 months, 50 μM) of the same compound?
A: complete absence of cellular outgrowths

Q: And the “ex vivo invasion of autologous stroma” value [4]?
A: suppressed ex vivo invasion
